This note sets out measurements from patent publication US10561638B2, “Methods for treating dependence” (Biotie Therapies, Inc., priority 2007, dated 2020).

This series concerns rats. Put plainly: Chronic (10 day) dosing behavioral tests in rats. The following applies: for acoustic startle reactivity: 50 mg/kg. On the procedure:
The effects of chronic dosing of nepicastat in rats were examined. Between three and thirteen days prior to the first dosing day the rats were placed inside the startle apparatus and after a five minute acclimation period they were presented with a 118 dB noise burst on average once a minute (a variable inter-trial interval ranging between 30 and 90 seconds will be used) for 20 minutes. The startle responses were measured and a mean for the last twenty startle response was calculated for each rat.
The following behavioral tests were administered during and after chronic dosing; body core temperature, motor activity, acoustic startle reactivity, and pre-pulse inhibition of acoustic startle.
The animals were tested in an enclosed room with a white noise generator running Motor activity tests were conducted immediately after the body core temperature reading taken on dosing day ten (about 3 hours and 35 minutes after the morning daily dose of nepicastat, and SKF-102698, and 20 minutes prior to the daily administration of clonidine and d-amphetamine on dosing day ten). Motor activity tests were run for one hour. A diagnostic program was run on each of the motor activity chambers prior to each test session to assure that the photo beams and light sensors were operating properly. […] D-amphetamine was used as the positive control for this assay.
Rat body core temperatures were obtained by inserting the rectal probe 2 cm into the colon of each rat. Each rat's body core temperature was measured three times and the average of the three reading was calculated. Body core temperature readings were obtained immediately prior to the ten day chronic dosing schedule (to obtain a baseline), and three and half hour after the morning daily dose of nepicastat, and SKF-102698, and 15 minutes prior to the daily administration of clonidine and d-amphetamine, on dosing days one, five and ten. […] Both clonidine (an alpha2 agonist), and d-amphetamine (a dopamine releaser) were used as the positive controls for this assay.
Acoustic startle reactivity (a series of muscle contractions elicited by an intense burst of noise with a rapid onset), and pre-pulse inhibition (sensorimotor gating measured by analyzing any decrease in startle reactivity which occurs when a startling stimulus is immediately preceded by a non startling stimulus) were both measured in eight SR-Lab (San Diego Instruments, San Diego, Calif.) test stations. The rats were placed individually in a Plexiglas cylinder (10 cm diameter) which was housed in a ventilated sound-attenuating enclosure. Acoustic noise bursts (a broad band noise with a rise time and fall time of 1 msec) were presented via a speaker mounted 30 cm above the animal. Also, these speakers produced a 68 dB level of background noise throughout all test sessions. A piezoelectric accelerometer attached below the plexiglass cylinder transduced the subject's movement into a voltage which was then rectified and digitized (on a scale from 0 to 4095) by a PC computer equipped with SR-Lab software and interface assembly. A decibel meter was used to calibrate the speakers in each of the eight test station to ±1% of the mean. Additionally, a SR-Lab calibrating instrument was used to calibrate each of the eight startle detection apparatuses to ±2% of the mean. Startle reactivity and pre-pulse inhibition tests were run concurrently immediately alter the motor activity test (about 4 hours and 40 minutes after the morning daily injection of nepicastat, and SKF-102698, and 10 minutes after a supplemental administration of clonidine and d-amphetamine on dosing day ten).

In the case of `Cl.NCc1c[nH]c(=S)n1[C@H]1CCc2c(F)cc(F)cc2C1` [nepicastat, (S)-5-Aminomethyl-1-(5,7-difluoro-1,2,3,4-tetrahydronaphth-2-yl)-2,3-dihydro-2-thioxo-1H-imidazole hydrochloride], for the setting “rat, in vivo”, the body core temperature entry is on record as “unaffected”, the pre-pulse inhibition result is recorded as “None of the nepicastat dose groups were significantly different” and the acoustic startle reactivity entry is recorded as “significantly higher startle response than the SKF-102698”.

As for `Fc1cc(F)cc(Cn2cc[nH]c2=S)c1` [SKF-102698, reference compound], the pre-pulse inhibition result (dosing day ten) is given as “Neither d-amphetamine nor SKF-102698 was significantly different” and the pre-pulse inhibition result (rat, in vivo) is listed as “marginally higher percent prepulse inhibition”. Moreover, under “dosing day ten, nepicastat 5, 15, 50, SKF-102698 50 mg/kg bid, clonidine 20 μg/kg, d-amphetamine 2 mg/kg bid”, the “locomotor activity vs vehicle” value is on record as “significantly lower locomotor activity”. In addition, the acoustic startle reactivity result (rat, in vivo) is given as “significantly lower startle response compared to cyclodextrin”.
